“Also recorded” adds a separate entry of the source.
Legend:
Mmachc^de13/de13 mice [1] = test: Survival of treated Mmachc^de13/de13 mutant mice; type: in vivo, mouse; conditions: for median survival: Mmachc^de13/de13 mutants, pregnant dams treated weekly (1 mg) throughout gestation and weaning (prenatal treatment); for mutants alive at 100 days: prenatal treatment
Procedure: (§1) Survival and phenotype in Mmachc mice: Mendelian ratios at birth, survival, and relative weight: To determine survival, litters were assessed daily after birth and dead pups were noted, removed, and genotyped when tissue was available. Age at time of death was recorded. Weights were measured monthly and the weight of mutants relative to average weight of control littermates was calculated.
(§2) Cobalamin Treatment: OHCbl and MeCbl were obtained from College Pharmacy (Colorado Spring, CO) or prepared at 25 mg/ml concentration and subsequently diluted with 0.9% saline solution to a working solution of 5 mg/ml. OHCbl or MeCbl was delivered by intraperitoneal injections for pups ages P0-P14 and subcutaneous injections for mice post weaning. For in utero treatment studies, pregnant dams were treated with 1 mg/week (100 mg/kg) via subcutaneous injections throughout pregnancy and weaning. For chronic therapy 50 μg/kg dosing was used.
(§3) AAV Vector Design, Production, and Delivery: Two adeno associated viral vectors were designed: AAVrh10-Mmachc, containing the murine Mmachc coding sequence packaged into a rh10 serotype capsid, and AAV9-coMMACHC, containing a codon optimized human MMACHC coding sequence packaged into an AAV9 serotype capsid. AAVs were produced as described previously. AAV viral vectors were delivered via intrahepatic injection at a dose of 1×10^11 GC per pup in the neonatal period (P0-2). ddPCR was conducted using a CMV/CBA probe spanning the promoter/enhancer, reference albumin Dissection of Pregnant Dams: Pregnant dams were either untreated, treated with OHCbl, MeCbl or the combination (1 mg per week) during pregnancy as described and sacrificed at E18.5. Embryos were photographed, tails were collected for genotyping, and the remaining tissue was collected and flash frozen. Embryo weights were measured and the weight of mutants relative to average weight of control littermates was calculated. Crown to rump length of each embryo was also determined using ImageJ software.
(§4) Statistics: Graphpad Prism Software was used for statistical analysis. All data are presented as mean±SD and significance is indicated as follows: p<0.05(*), p<0.01(**), p<0.001 (***), and p<0.0001(****). Kaplan-Meier survival curve significance was determined using the Log-Rank Mantel-Cox test, genotype distribution significance was assessed using the chi-square test, and all other statistics were calculated using the unpaired t-test.

Mmachc^de12/de12 mice [2] = test: Survival of treated Mmachc^de12/de12 mutant mice; type: in vivo, mouse; conditions: prenatal treatment; for median survival: Mmachc^de12/de12 mutants, OHCbl 1 mg, MeCbl 1 mg or 0.5 mg each weekly
Procedure: as §1, §2, §4

Mmachc^del2 mouse line = test: Genotype distribution at birth (P0-2), Mmachc^del2 litters; type: in vivo; conditions: mice at birth; prenatal treatment
Procedure: (§5) Genotyping and breeding scheme: Tail biopsies were performed routinely at 10-15 days of life or in rare cases in the first day of life and DNA was extracted using the Qiagen DNEASY® Spin Kit or the MYTAQ® Extract-PCR Kit. Mmachc genotype was determined by a fluorescent PCR method described previously^22 or by Droplet Digital PCR (ddPCR) Mutation Detection Assay (Bio-Rad). ddPCR genotyping was performed by mixing 2 ul of 1:10 diluted DNA, 1.1 ul probe-primer mix, and 7.9 ul water. The primer-probe mix contained the wild-type/mutant primer and fluorescent FAM and HEX probes targeting the mutant and wild-type alleles, respectively. Sample droplets were generated by the QX200 Droplet Digital PCR system, PCR amplified in a thermocycler, and DNA quantified by droplet fluorescence. Mmachc homozygous mutant mice and their heterozygote or wild type control littermates were generated from heterozygous parental crosses unless otherwise noted. In order to eliminate the Pdeb(rdl) mutation present in the FVB/N genetic background which causes retinal degeneration, Mmachc carrier mice were crossed to C57BL/6J mice. Subsequent generations of Mmachc carriers were genotyped for the Pdeb(rdl) mutation using a published PCR method (Gimenez and Montouliu Lab Anim 35, 153-6 (2001)), and mice homozygous for the functional Pdeb(rdl) allele were selected for further breeding. Mice were fed regular or high fat chow and weaned at P21-28.
as §1, §2, §4

Mmachc^del3 mouse line [3] = test: Genotype distribution at birth (P0-2), Mmachc^del3 litters; type: in vivo; conditions: mice at birth; prenatal treatment
Procedure: as §5, §1, §2, §4

Mmachc^de12/de12 embryos = test: E18.5 embryo weight and pathology, Mmachc^de12/de12; type: in vivo, mouse; conditions: prenatal treatment
Procedure: as §3

Mmachc^de13/de13 mice [4] = test: Postnatal weight relative to control littermates, Mmachc^de13/de13; type: in vivo, mouse
Procedure: as §1

Mmachc^de12/de12 mice [5] = test: Postnatal weight, Mmachc^de12/de12; type: in vivo, mouse; conditions: prenatal treatment
Procedure: as §1

Mmachc^de13/de13 mice [6] = test: Plasma metabolite measurements (GC-MS), Mmachc^de13/de13; type: in vivo, mouse; conditions: for plasma cystathionine: P0-P30; for plasma methylmalonic acid: P0-P30 (two weeks)
Procedure: Metabolite measurements: Blood samples were collected in heparinized capillary tubes and centrifuged at 2000 rpm for 10 min at 4C. Plasma was diluted 1:40 in water for methylmalonic acid and methylcitrate measurements and undiluted plasma was used for homocysteine and cystathionine measurements. Plasma concentrations were determined by gas chromatography-mass spectrometry (GC-MS).

Mmachc^de13/de13 mice [7] = test: Pigmentation / clinical appearance, Mmachc^de13/de13; type: in vivo, mouse
Mmachc^de12/de12 mice [8] = test: Pigmentation / clinical appearance, Mmachc^de12/de12; type: in vivo, mouse; conditions: prenatal treatment
Mmachc^del3 mouse line [9] = test: Genotype distribution at E18.5, Mmachc^del3 litters; type: in vivo; conditions: mice at E18.5; prenatal treatment
Procedure: as §3, §4

Mmachc^de13/de13 embryos = test: E18.5 embryo growth parameters, Mmachc^de13/de13; type: in vivo, mouse
Procedure: as §3

Mmachc^de13/de13 mice [10] = test: Retinal histology and electroretinography, Mmachc^de13/de13; type: in vivo, mouse
From the text: The severe neonatal lethality of this model in combination with the fact that the mouse retina develops until ˜P21 made it challenging to study retinal pathology in untreated mice.

cblC patients = test: Natural history cohort of cblC patients (NCT00078078); type: in vivo, human
Procedure: Extensive data was collected on a large natural history cohort of 61 patients studied every 2-3 years over 15 yrs to evaluate the impact of different approaches to clinical management/cobalamin therapy on disease outcomes (ClinicalTrial.gov ID: NCT00078078). […] Six patients (ages 2.2-3.8 years), who received higher doses of hydroxocobalamin (5-20 mg/day or 0.3-1.4 mg/kg/d) starting between 6 mo-1 yr, presented with variable macular degeneration and improved average FSIQ and ABC scores in the normal range (FSIQ 91.6±5.3; ABC 88.2±10.7), compared to our historic scores in young children <10 y of age on <0.3 mg/kg/day (FSIQ 70.69±19.11, ABC 79.83±17.42).

[11] = 7-13 months, both prenatal OHCbl and prenatal OHCbl+weekly groups
[12] = 7-13 months, prenatal+postnatal OHCbl
[13] = six patients ages 2.2-3.8 years, 5-20 mg/day or 0.3-1.4 mg/kg/d starting between 6 mo-1 yr
[14] = young children <10 y of age on <0.3 mg/kg/day

C/C1=C2/[N-][C@H]([C@H](CC(N)=O)[C@@]2(C)CCC(=O)NC[C@H](C)OP(=O)([O-])O[C@H]2[C@@H](O)[C@@H](n3cnc4cc(C)c(C)cc43)O[C@@H]2CO)[C@]2(C)N=C(/C(C)=C3N=C(/C=C4N=C1[C@@H](CCC(N)=O)C\4(C)C)[C@@H](CCC(N)=O)[C@]\3(C)CC(N)=O)[C@@H](CCC(N)=O)[C@]2(C)CC(N)=O.[CH3-].[Co+3] [MeCbl, methylcobalamin]
median survival (Mmachc^de13/de13 mice [1]): 144 days | mutants alive at 100 days (Mmachc^de13/de13 mice [1]): 100% | median survival (Mmachc^de12/de12 mice [2]): 78 days | mutants survived beyond 30 days (Mmachc^de12/de12 mice [2]): 100% | genotype distribution +/+ (%) (Mmachc^del2 mouse line): 18% | genotype distribution +/+ n (Mmachc^del2 mouse line): 14 | genotype distribution +/− (%) (Mmachc^del2 mouse line): 53% | genotype distribution +/− n (Mmachc^del2 mouse line): 41 | genotype distribution −/− (%) (Mmachc^del2 mouse line): 29% | genotype distribution −/− n (Mmachc^del2 mouse line): 22 | genotype distribution +/+ (%) (Mmachc^del3 mouse line [3]): 31% | genotype distribution +/+ n (Mmachc^del3 mouse line [3]): 38 | genotype distribution +/− (%) (Mmachc^del3 mouse line [3]): 63% | genotype distribution +/− n (Mmachc^del3 mouse line [3]): 76 | genotype distribution −/− (%) (Mmachc^del3 mouse line [3]): 6% | genotype distribution −/− n (Mmachc^del3 mouse line [3]): 7 | weight of E18.5 embryos normalized to control values (Mmachc^de12/de12 embryos; weekly subcutaneous injection of dams, untreated 76.4%): 89.4 % of controls | pathology at E18.5 (Mmachc^de12/de12 embryos; H&E): ameliorated the pathology in the lungs, liver and brown fat | size relative to littermates at 3 months (Mmachc^de13/de13 mice [4]; prenatal treatment): 48% | growth at 1 month (Mmachc^de12/de12 mice [5]): appeared growth impaired but this was not significant at 1 month | plasma cystathionine (Mmachc^de13/de13 mice [6]; prenatal treatment): reduced cystathionine to control levels; also recorded: decreased to control levels | homocysteine levels (Mmachc^de13/de13 mice [6]; prenatal treatment): did not improve | pigmentation of fur, ears and tails (Mmachc^de13/de13 mice [7]; prenatal treatment): minimal pigmentation differences | pigmentation of the ears (Mmachc^de12/de12 mice [8]): improvement in pigmentation of the ears

C/C1=C2/[N-][C@H]([C@H](CC(N)=O)[C@@]2(C)CCC(=O)NC[C@@H](C)OP(=O)([O-])O[C@H]2[C@@H](O)[C@@H](n3cnc4cc(C)c(C)cc43)O[C@@H]2CO)[C@]2(C)N=C(/C(C)=C3N=C(/C=C4N=C1[C@@H](CCC(N)=O)C\4(C)C)[C@@H](CCC(N)=O)[C@]\3(C)CC(N)=O)[C@@H](CCC(N)=O)[C@]2(C)CC(N)=O.[Co+3].[OH-] [OHCbl, hydroxocobalamin]
median survival (Mmachc^de13/de13 mice [1]): 109 days | mutants alive at 100 days (Mmachc^de13/de13 mice [1]): 50% | longest surviving (Mmachc^de13/de13 mice [1]; prenatal+weekly OHCbl): > 1 year | median survival (Mmachc^de12/de12 mice [2]): 25 days | genotype distribution +/+ (%) (Mmachc^del2 mouse line): 29% | genotype distribution +/+ n (Mmachc^del2 mouse line): 76 | genotype distribution +/− (%) (Mmachc^del2 mouse line): 66% | genotype distribution +/− n (Mmachc^del2 mouse line): 171 | genotype distribution −/− (%) (Mmachc^del2 mouse line): 5% | genotype distribution −/− n (Mmachc^del2 mouse line): 13 | genotype distribution +/+ (%) (Mmachc^del3 mouse line [3]): 30% | genotype distribution +/+ n (Mmachc^del3 mouse line [3]): 105 | genotype distribution +/− (%) (Mmachc^del3 mouse line [3]): 54% | genotype distribution +/− n (Mmachc^del3 mouse line [3]): 192 | genotype distribution −/− (%) (Mmachc^del3 mouse line [3]): 16% | genotype distribution −/− n (Mmachc^del3 mouse line [3]): 57 | genotype distribution +/+ (%) (Mmachc^del3 mouse line [9]): (23) % | genotype distribution +/+ n (Mmachc^del3 mouse line [9]): 14 | genotype distribution +/− (%) (Mmachc^del3 mouse line [9]): (46) % | genotype distribution +/− n (Mmachc^del3 mouse line [9]): 28 | genotype distribution −/− (%) (Mmachc^del3 mouse line [9]): (31) % | genotype distribution −/− n (Mmachc^del3 mouse line [9]): 19 | embryo weight normalized to control littermates (Mmachc^de13/de13 embryos; de13/de13, prenatal treatment, n=11): 0.8204±0.03641 | anterioposterior abdominal dimension (APD) (Mmachc^de13/de13 embryos; prenatal treatment): did not improved | crown rump length (IUGR) (Mmachc^de13/de13 embryos; prenatal treatment): did not rescue the IUGR | relative weight of mutant mice at two weeks (Mmachc^de13/de13 mice [4]; prenatal OHCbl): improved the weight vs untreated | relative weight of mutant mice at two weeks (Mmachc^de13/de13 mice [4]; prenatal OHCbl+weekly): improved the weight vs untreated | homocysteine (Mmachc^de13/de13 mice [6]; [11]): remained elevated vs controls but was lower | methylmalonic acid (Mmachc^de13/de13 mice [6]; [11]): remained elevated vs controls and untreated mutants | methylmalonic acid levels in the blood [MMA] (Mmachc^de13/de13 mice [6]; [12]): > 1500 µM | total homocysteine levels (tHCYS) (Mmachc^de13/de13 mice [6]; [12]): 31 µM | plasma methylmalonic acid (Mmachc^de13/de13 mice [6]; prenatal treatment only): no decrease | plasma methylmalonic acid (Mmachc^de13/de13 mice [6]; weekly (chronic) OHCbl): decreased | plasma cystathionine (Mmachc^de13/de13 mice [6]; prenatal treatment): elevated compared to untreated mutants; also recorded: increased | homocysteine levels (Mmachc^de13/de13 mice [6]; prenatal and weekly treatment): did not improve | homocysteine levels (Mmachc^de13/de13 mice [6]; prenatal treatment): did not improve | pigmentation of ears and tail (Mmachc^de13/de13 mice [7]; long term (prenatal+weekly) treatment): decreased hypopigmentation | retinal histology (Mmachc^de13/de13 mice [10]; 6-9 months of age): within normal limits | electroretinography (ERG) (Mmachc^de13/de13 mice [10]; prenatal OHCbl/AAV9 at 9 months, OHCbl at 6 months): diminished scotopic B waves | adverse events (cblC patients; adults and children on 25 mg/day monitored 2-8 years): no significant adverse events | ABC score (cblC patients; single patient, 5 mg): 79 | eye exam (cblC patients; single patient, 5 mg): normal | average ABC score (cblC patients; [13]): 88.2±10.7 | average FSIQ score (cblC patients; [13]): 91.6±5.3 | ABC score (historic) (cblC patients; [14]): 79.83±17.42 | FSIQ score (historic) (cblC patients; [14]): 70.69±19.11

— US20230390322A1, “HIGH CONCENTRATION METHYLCOBALAMIN OR COMBINATION OF METHYL- AND HYDROXY-COBALAMIN FOR THE TREATMENT OF COBALAMIN C DEFICIENCY DISORDERS” (THE U.S.A., as represented by the Secretary, Department of …, priority 2020, published 2023)
